# System: CRC cell lines
# Assay: Drug response in cell lines (CellTiter-Glo proliferation, 72 h)
# Assay type: cell-based, human
# Conditions: PHA-665752 125 nM, relative to vehicle-treated cells (FIG. 3E)
# Protocol: Colon cancer cell lines were grown in DMEM (Gibco, USA) plus 10% FBS (Invitrogen, USA) without antibiotics/antimycotics. All the cell lines were confirmed to be negative for mycoplamsa by PCR (VenorGeM kit, Sigma, USA) prior to use and were tested monthly.
# Proliferation was monitored using CellTiter-Glo® assay kit according to the manufacturer's instruction (Promega, Dubendorf, Switzerland) on day 3 (72 h).
compound,measurement,value
"Cc1[nH]c(/C=C2\C(=O)Nc3ccc(S(=O)(=O)Cc4c(Cl)cccc4Cl)cc32)c(C)c1C(=O)N1CCC[C@@H]1CN1CCCC1 [cMet inhibitor, PHA-665752]","sensitivity to cMet inhibition, CR-TA versus CS-TA cell lines",CR-TA cell lines were much more sensitive to cMet inhibition than CS-TA cell lines

# From patent US20150354009A1, “COLORECTAL CANCER CLASSIFICATION WITH DIFFERENTIAL PROGNOSIS AND PERSONALIZED THERAPEUTIC RESPONSES” (ECOLE POLYTECHNIQUE FEDERALE DE LAUSANNE (EPFL), priority 2012, published 2015)
